We go through four molecules from PMC7918738, “Microtubule Destabilizing Sulfonamides as an Alternative to Taxane-Based Chemotherapy” (International Journal of Molecular Sciences, 2021).

One assay concerns MCF7 cells. As to the kind of experiment: Annexin V-FITC/PI cell death quantification in MCF7. The settings on record: 38 600 nM, 42 50 nM, 45 400 nM; for Annexin V-FITC/PI 72 h LA (late apoptosis) / Annexin V-FITC/PI 72 h Necrosis / Annexin V-FITC/PI 72 h EA (early apoptosis) / Annexin V-FITC/PI 72 h Live / Annexin V-FITC/PI 6 Days LA (late apoptosis) / Annexin V-FITC/PI 6 Days Necrosis / Annexin V-FITC/PI 6 Days EA (early apoptosis) / Annexin V-FITC/PI 6 Days Live: CA-4 50 nM; for Annexin V-FITC/PI 6 Days LA (late apoptosis) / Annexin V-FITC/PI 6 Days Necrosis / Annexin V-FITC/PI 6 Days EA (early apoptosis) / Annexin V-FITC/PI 6 Days Live: MCF7, 6 days. The format is cell-based, human. The protocol: (§1) To determine whether the cytotoxic/antiproliferative effect of the MDS was due to apoptosis induction, cells were treated with variable concentrations of the drug for 72 h or 6 days, stained with Annexin V-FITC (AnV) and propidium iodide (PI), and analyzed by flow cytometry. Double negative cells (AnV^−/PI^−) were classified as live cells (L), cells positive for AnV and negative for PI (AnV^+/PI^−) were considered in Early Apoptosis (EA), cells negative for AnV and positive for PI (AnV^−/PI^+) were considered necrotic (N), and double-positive cells (AnV^+/PI^+) as Late Apoptosis (LA). In all cases, the compounds were used at the same concentrations previously used in cell cycle studies (Table 5).
(§2) MCF7, SKOV-3, and HeLa apoptotic cells were quantified using an Annexin V-FITC/PI apoptosis detection kit (Immunostep, Salamanca, Spain) according to the manufacturer’s guidelines. 1.5 mL/well of cells in the exponential growth phase at 2·10^4 cells/mL were seeded onto 12-well plates and left to attach overnight. After 24 h incubation, cells were treated with selected compounds. After 72 h (MCF7, SKOV-3, and HeLa) and 6 days (MCF7) post-treatment, attached and floating cells of treated and untreated wells were collected, centrifuged, resuspended in Annexin V binding buffer, and stained with Annexin V-FITC/PI. Cells were then incubated in darkness at room temperature for 15 min and a total of 30,000 cells were acquired and analyzed using the BD Accuri™ C6 Plus Flow Cytometer and Software (version 1.0.264.21, BD Biosciences, San José, CA, USA), respectively. Compounds were dissolved in DMSO and the final solvent concentration never exceeded 0.5% (v/v). Control wells included cells with 0.5% (v/v) DMSO.

The test system of the next assay is HeLa cells. Description: Annexin V-FITC/PI cell death quantification in HeLa. Particulars: 38 600 nM, 42 50 nM, 45 400 nM. It counts as cell-based, human. On the procedure:
as §1, §2

The next assay relates to SKOV3 cells. Description: Annexin V-FITC/PI cell death quantification in SKOV3. It counts as cell-based, human. The settings on record: SKOV3, 72 h; 38 600 nM, 42 50 nM, 45 400 nM, paclitaxel 10 nM. On the procedure:
as §1, §2

The test system of assay [1] is A2780 ovarian carcinoma cells. Description: Antiproliferative activity against A2780 (MTT). It counts as cell-based. The settings on record: Homo sapiens, 72 h. The protocol:
The in vitro antiproliferative activity of compounds 38, 42, and 45 against a panel of five human ovarian carcinoma cell lines (SKOV3, IGROV-1, A2780, OVCAR-8, and OVCAR-3) was evaluated by a colorimetric method (Table 3) and compared with paclitaxel. […] For SKOV3, the potency reduction observed for paclitaxel together with a sustained or improved (42 with a 7 nM IC50 value) potency for MDS results in a more favorable profile of the MDS compared to paclitaxel.
MCF7 (human breast carcinoma), SKOV-3 (human ovarian carcinoma), OVCAR-3 (human ovarian carcinoma), OVCAR-8 (human ovarian carcinoma), and HeLa (human cervical carcinoma) cell lines were cultured in Dulbecco’s Modified Eagle’s Medium (DMEM) (Gibco, Thermo Fischer Scientific) containing 10% (v/v) heat-inactivated fetal bovine serum (HIFBS) (Lonza-Cambrex, Karlskoga, Sweden), 2 mM L-glutamine (Lonza-Cambrex, Karlskoga, Sweden), 100 μg/mL streptomycin, and 100 IU/mL penicillin (Lonza-Cambrex) at 37 °C in humidified 95% air and 5% CO2. […]
MCF7, HeLa, and HT-29 cell proliferation, when treated with the corresponding compounds, were determined using the XTT (sodium 3’-[1(phenylaminocarbonyl)-3,4-tetrazolium]-bis(4-methoxy-6-nitro)-benzenesulfonic acid hydrate) cell proliferation kit (Roche Molecular Biochemicals, Mannheim, Germany). […] The absorbance of the formazan product generated was measured at 450 nm using a multi-well plate reader. SKOV-3, OVCAR-3, OVCAR-8, IGROV-1, A-2780 cell proliferation, when treated with the corresponding compound, were determined using MTT (3-(4,5-dimethylthiazol-2-yl)-2,5-diphenyl-2H-tetrazolium bromide) (Sigma-Aldrich, St. Louis, MO, USA). […] Absorbance was measured at 570 nm in a plate reader (Ultra Evolution, Tecan, Männedorf, Suiza). […] After 24 h incubation, to allow cells to attach to the plates, all compounds were added at 1 µM concentration and the effect on the proliferation was evaluated 72 h post-treatment. […]

Where “and” joins values, the source holds several entries; their conditions need not be identical. Equal values may be shown once.

With `COc1ccc(/C=C\c2cc(OC)c(OC)c(OC)c2)cc1O` [Combretastatin A-4, reference compound], in the assay with MCF7 cells (MCF7, 72 h), the “Annexin V-FITC/PI 72 h LA (late apoptosis)” value turned out to be 3.3% and the “Annexin V-FITC/PI 72 h Necrosis” value is given as 6.7%. Besides, in the assay on MCF7 cells (MCF7, 72 h, listed as CA-4), the “Annexin V-FITC/PI 72 h EA (early apoptosis)” value (“Annexin V-FITC/PI 72 h EA” below) was 32% and 31.7%; the “Annexin V-FITC/PI 72 h Live” value is 58% and 58.3%. In the assay on MCF7 cells, the “Annexin V-FITC/PI 6 Days LA (late apoptosis)” value (“Annexin V-FITC/PI 6 Days LA” below) came out at 2.7% and the “Annexin V-FITC/PI 6 Days Necrosis” value stood at 0.4%. Further, in the assay with MCF7 cells (listed as CA-4), the “Annexin V-FITC/PI 6 Days EA (early apoptosis)” value (shortened to “Annexin V-FITC/PI 6 Days EA”) turned out to be 52.4% and the “Annexin V-FITC/PI 6 Days Live” value was found to be 44.5%.

As a reminder, the IC50 is the concentration at which inhibition is half-maximal. Higher therefore signals weaker potency. As to `CNc1ccc(S(=O)(=O)N(C)c2cc(OC)c(OC)c(OC)c2)cc1` [Compound 38], in the assay on HeLa cells, the “Annexin V-FITC/PI 72 h EA” value was 1.1%; the “Annexin V-FITC/PI 72 h LA (late apoptosis, double-positives)” value is listed as 87.6%; the “Annexin V-FITC/PI 72 h Necrosis” value is 10.6%. Further, in the assay on SKOV3 cells, the “Annexin V-FITC/PI 72 h EA” value is 31% and 30.5%; the “Annexin V-FITC/PI 72 h LA (late apoptosis)” value was 5.4%; the “Annexin V-FITC/PI 72 h Live” value is 62.3%; the “Annexin V-FITC/PI 72 h Necrosis” value turned out to be 1.8%. In the assay with MCF7 cells (MCF7, 72 h), the “Annexin V-FITC/PI 72 h EA” value is 29%; the “Annexin V-FITC/PI 72 h LA (late apoptosis)” value was determined as 5.4%; the “Annexin V-FITC/PI 72 h Live” value was 60% and 60.5%; the “Annexin V-FITC/PI 72 h Necrosis” value was 5.1%. In addition, in the assay on MCF7 cells, the “Annexin V-FITC/PI 6 Days EA” value is 45.0%, the “Annexin V-FITC/PI 6 Days LA” value came out at 2.7%, the “Annexin V-FITC/PI 6 Days Live” value is on record as 52.0% and the “Annexin V-FITC/PI 6 Days Necrosis” value worked out at 0.3%. This molecule returned an IC50 in assay [1] of 0.068 µM.

As for `COc1ccc(S(=O)(=O)N(C)c2cc(OC)c(OC)c(OC)c2)cc1N` [Compound 42], in the assay on HeLa cells, the “Annexin V-FITC/PI 72 h EA” value turned out to be 1.4%; the “Annexin V-FITC/PI 72 h LA (late apoptosis, double-positives)” value was 82.0%; the “Annexin V-FITC/PI 72 h Necrosis” value was 9.4%. Besides, in the assay with SKOV3 cells, the “Annexin V-FITC/PI 72 h EA” value is given as 12.2%, the “Annexin V-FITC/PI 72 h LA (late apoptosis)” value came to 2.0%, the “Annexin V-FITC/PI 72 h Live” value is given as 85.1% and the “Annexin V-FITC/PI 72 h Necrosis” value is reported as 0.7%. Further, in the assay on MCF7 cells (MCF7, 72 h), the “Phosphatidylserine exposure (Annexin V-positive MCF7 cells)” value was found to be 11%; the “Annexin V-FITC/PI 72 h EA” value is 9% and 8.5%; the “Annexin V-FITC/PI 72 h LA (late apoptosis)” value came out at 2.3%; the “Annexin V-FITC/PI 72 h Live” value was 88% and 87.7%. Besides, the “Annexin V-FITC/PI 72 h Necrosis” value in the assay with MCF7 cells (MCF7, 72 h) was determined as 1.4%. In the assay with MCF7 cells, the “Annexin V-FITC/PI 6 Days EA” value was 19% and 18.9%; the “Annexin V-FITC/PI 6 Days LA” value came to 1.7%; the “Annexin V-FITC/PI 6 Days Live” value was 79% and 79.1%; the “Annexin V-FITC/PI 6 Days Necrosis” value turned out to be 0.3%. Further, the IC50 in assay [1] is 0.042 µM.

As to `COc1ccc(S(=O)(=O)N(Cc2ccccc2)c2cc(OC)c(OC)c(OC)c2)cc1N` [Compound 45], in the assay on HeLa cells, the “Annexin V-FITC/PI 72 h EA” value is on record as 1.5%; the “Annexin V-FITC/PI 72 h LA (late apoptosis, double-positives)” value is 84.9%; the “Annexin V-FITC/PI 72 h Necrosis” value is recorded as 12.7%. For the same molecule, in the assay with SKOV3 cells, the “Annexin V-FITC/PI 72 h EA” value is 23% and 23.4%; the “Annexin V-FITC/PI 72 h LA (late apoptosis)” value amounted to 2.6%; the “Annexin V-FITC/PI 72 h Live” value was 72.7%; the “Annexin V-FITC/PI 72 h Necrosis” value is 1.3%. Besides, in the assay on MCF7 cells (MCF7, 72 h), the “Annexin V-FITC/PI 72 h EA” value was 20% and 20.1%; the “Annexin V-FITC/PI 72 h LA (late apoptosis)” value is reported as 7.5%; the “Annexin V-FITC/PI 72 h Live” value is 71% and 70.5%; the “Annexin V-FITC/PI 72 h Necrosis” value is on record as 1.9%. In addition, in the assay on MCF7 cells, the “Annexin V-FITC/PI 6 Days EA” value worked out at 39.3%, the “Annexin V-FITC/PI 6 Days LA” value was 3.8%, the “Annexin V-FITC/PI 6 Days Live” value is listed as 56.7% and the “Annexin V-FITC/PI 6 Days Necrosis” value is recorded as 0.3%. For the same molecule, in assay [1], the IC50 amounted to 0.104 µM.
